Assay results reported in US20130245110A1, “USE FOR CANNABINOIDS” (priority 2008, published 2013).
Values joined by “and” are separate entries in the source; they are usually repeats but may differ in a detail not shown here. Equal entries are not always repeated.

Tests used:
[1] = tested on: dietary induced obese (DIO) mouse model; assay: 24 h energy expenditure by indirect calorimetry, chronic dosing study; assay type: in vivo; details: DIO mice; 10 mg·kg−1 p.o.; relative to control, first 12 h post-dosing
Source text: The C57B1/6 mouse fed on a high fat diet for around 12 weeks is a standard model used to evaluate agents likely to affect metabolic disease including obesity, type II diabetes and dyslipidaemia. Thus both potential anti-obesity effects and effects on diabetic and dyslipidaemia parameters will be measured.
(§1) Once the acute studies were complete the mice were grouped in two groups of five mice for the chronic dosing study. Dosing was daily by oral gavage at 09:00-10:00.

[2] = tested on: dietary induced obese (DIO) mouse model; assay: Thermic response to food (energy expenditure after Complan meal), chronic dosing study; assay type: in vivo; set-up: Thermic response to food: unit not given here; details: DIO mice, days 15-17; for Thermic response to food: 10 mg·kg−1 p.o.
Source text: as §1
Energy expenditure consists of basal metabolic rate, exercise-induced energy expenditure, and non-exercise thermogenesis. The latter is the most likely area to be affected by anti-obesity agents. Non-exercise thermogenesis includes the thermic response to food, which in rodents can be measured by examining energy expenditure in response to a meal. This was measured after an oral dose of complan (see methods).

pancreatic lipase = molecular target: T1, pancreatic lipase (Homo sapiens, UniProt P16233); details: subjects eating a 30% fat diet; cited from earlier work
T1 construct: host or cells: endogenous enzyme in subjects (in vivo)
T1 sequence (P16233 17-465): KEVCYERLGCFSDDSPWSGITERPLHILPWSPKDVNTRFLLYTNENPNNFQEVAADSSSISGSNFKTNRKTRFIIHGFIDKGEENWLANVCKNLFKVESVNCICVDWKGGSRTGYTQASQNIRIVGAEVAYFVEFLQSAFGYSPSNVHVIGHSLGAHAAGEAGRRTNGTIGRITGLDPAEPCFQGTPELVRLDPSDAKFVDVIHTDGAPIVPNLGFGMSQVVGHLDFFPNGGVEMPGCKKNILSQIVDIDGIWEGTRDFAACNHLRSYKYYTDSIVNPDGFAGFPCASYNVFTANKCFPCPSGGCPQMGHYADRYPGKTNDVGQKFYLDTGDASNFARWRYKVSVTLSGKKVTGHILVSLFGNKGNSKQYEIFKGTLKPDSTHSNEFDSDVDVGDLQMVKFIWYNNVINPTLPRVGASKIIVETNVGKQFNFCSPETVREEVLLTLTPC

rat isolated aortae = assay: In vitro vascular studies by wire myography

**Q.** With `Cc1c(C(=O)NN2CCCCC2)nn(-c2ccc(Cl)cc2Cl)c1-c1ccc(Cl)cc1` [rimonabant, reference compound] as the compound, how does the “Effect on 24 h energy expenditure (days 10-12)” value [1] read?
**A.** small increase in energy expenditure

**Q.** And the “Thermic response to food” value ([2]; Hour 0.44)?
**A.** 1.11 and 1.21 and 2.21

**Q.** And the “Thermic response to food” value ([2]; Hour 0.67)?
**A.** 1.38 and 1.56 and 2.67

**Q.** And the “Thermic response to food” value ([2]; Hour 4.00)?
**A.** 1.56 and 2.90 and 3.09

**Q.** What about the “Thermic response to food, effect in words” value ([2]; chronic-study doses (rimonabant 10, pure THCV 0.3 mg·kg−1 p.o.)) of the same compound?
**A.** without effect

**Q.** With `CCCCCCCCCCC[C@@H](C[C@@H]1OC(=O)[C@H]1CCCCCC)OC(=O)[C@H](CC(C)C)NC=O` [Orlistat] as the compound, how does the “Block of triacylglycerol hydrolysis” value (pancreatic lipase) read?
**A.** 30%

**Q.** Which “Vasorelaxation of pre-constricted vessels” value (rat isolated aortae) does the source give for `COc1ccc(CCN(C)CCCC(C#N)(c2ccc(OC)c(OC)c2)C(C)C)cc1OC` (stereo not shown) [verapamil, reference compound] here?
**A.** significant vasorelaxation
